In patent US11332470B2, “CXCR4 inhibitors and uses thereof” (X4 Pharmaceuticals, Inc., priority 2016, dated 2022):

Assays:
[1] = target: T1, CXCR4 (U87.CXCR4 cells) (Homo sapiens, UniProt P61073); assay: Intracellular CXCL-12-induced calcium mobilization assay (FLIPR); type: cell-based; details: CXCL-12 25-50 ng/mL, read-out: IC50 CXCL-12 Ca2+ flux U87.CXCR4+
T1 construct: expressed in transfected cells; host or cells: U87 (U87.CXCR4)
Method: Intracellular CXCL-12-Induced Calcium Mobilization Assay
Intracellular calcium mobilization induced by chemokines or chemokine-derived peptides were evaluated using a calcium responsive fluorescent probe and a FLIPR system. The CXCR-4 transfected U87 cell line (U87.CXCR4) cells were seeded in gelatine-coated black-wall 96-well plates at 20,000 cells per well and incubated for 12 hours. Cells were then loaded with the fluorescent calcium probe Fluo-2 acetoxymethyl at 4 μM final concentration in assay buffer (Hanks' balanced salt solution with 20 mM HEPES buffer and 0.2% bovine serum albumin, pH 7.4) for 45 min at 37° C. The intracellular calcium mobilization induced by the CXCL-12 (25-50 ng/mL) was then measured at 37° C. by monitoring the fluorescence as a function of time in all the wells simultaneously using a fluorometric imaging plate reader (FLIPR Tetra, Molecular Devices).

[2] = target: T2, CXCR4 (Jurkat cells expressing CXCR4) (Homo sapiens, UniProt P61073); assay: Chemokine (CXCL12-AF647) binding inhibition assay; details: CXCL12-AF647 25 ng/mL, read-out: IC50 CXCL-12 binding Jurkat
T2 construct: Jurkat cells expressing CXCR4; endogenous in cells; host or cells: Jurkat
T2 sequence (P61073 whole entry): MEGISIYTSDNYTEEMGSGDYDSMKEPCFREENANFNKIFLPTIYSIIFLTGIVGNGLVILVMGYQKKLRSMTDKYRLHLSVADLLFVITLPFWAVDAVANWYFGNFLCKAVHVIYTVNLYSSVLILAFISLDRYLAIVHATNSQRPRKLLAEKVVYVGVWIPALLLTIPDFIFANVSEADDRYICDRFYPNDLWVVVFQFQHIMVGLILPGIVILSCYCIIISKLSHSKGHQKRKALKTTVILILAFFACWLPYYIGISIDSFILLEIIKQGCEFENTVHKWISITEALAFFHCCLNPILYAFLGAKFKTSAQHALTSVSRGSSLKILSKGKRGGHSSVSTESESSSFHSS
Method: Chemokine (CXCL12-AF647) Binding Inhibition Assay
Jurkat cells expressing CXCR4 were washed once with assay buffer (Hanks' balanced salt solution with 20 mM HEPES buffer and 0.2% bovine serum albumin, pH 7.4) and then incubated for 15 min at room temperature with the test compounds diluted in assay buffer at dose-dependent concentrations. Subsequently, CXCL12-AF647 (25 ng/mL) was added to the compound-incubated cells. The cells were incubated for 30 min at room temperature. Thereafter, the cells were washed twice in assay buffer, fixed in 1% paraformaldehyde in PBS, and analyzed on the FL4 channel of a FACSCalibur flow cytometer equipped with a 635-nm red diode laser (Becton Dickinson, San Jose, Calif., USA).
The percentages of inhibition of CXCL12-AF647 binding were calculated according to the formula: [1−((MFI−MFINC)/(MFIPC−MFINC))]×100 where MFI is the mean fluorescence intensity of the cells incubated with CXCL12-AF647 in the presence of the inhibitor, MFINC is the mean fluorescence intensity measured in the negative control (i.e., autofluorescence of unlabeled cells), and MFIPC is the mean fluorescence intensity of the positive control (i.e., cells exposed to CXCL12-AF647 alone).

[3] = in vitro; details: human, Caco-2, pH 7.4
Method: The goal of this assay was to evaluate the intestinal absorption potential of drug candidates using Caco-2 cell lines.
1. Prewarm Prewarm HBSS Buffer in 37° C. water bath
2. Sonicate Take compounds from −20° C., sonicate for a few minutes (no less than 1 minute)
• Donor solution buffer: For A-to-B Direction: HBSS buffer with 0.3% DMSO and 5 μM LY: add 150 μL DMSO and 50 μL LY (5 mM) into 50 ml HBSS buffer (pH 7.4). HBSS buffer with 0.1% DMSO and 5 μM LY: add 50 μL DMSO and 50 μL LY (5 mM) into 50 mL HBSS buffer (pH 7.4). For B-to-A Direction: HBSS buffer with 0.3% DMSO: add 150 μL DMSO into 50 ml HBSS buffer (pH 7.4). HBSS buffer with 0.1% DMSO: add 50 μL DMSO into 50 ml HBSS buffer (pH 7.4). Receiver Solution Buffer: For A-to-B Direction: Prepare HBSS buffer with 0.4% DMSO: add 200 μL DMSO into 50 ml HBSS buffer (pH 7.4). For B-to-A Direction: Prepare HBSS buffer with 0.4% DMSO and 5 μM LY: add 200 μL DMSO and 50 μL LY (5 mM) into 50 ml HBSS buffer (pH 7.4).
4. Measure TEER Take cell culture plate out of incubator, wash the cell monolayers with HBSS buffer, and then measure TEER values at Rm temperature. 5. Centrifuge Centrifuge the compound solution (from step 3) at 4000 rpm for 5 min before loading to donor chambers. 6. Dosing Add solution based on the volumes listed in the following table (make sure to take extra 100 μL of donor sample for TO as Backup).
7. Apical LYT0 samples To determine LY concentration in the apical chamber, take 100 μL sample from apical chambers into an opaque plate for LYT0. 8. Prewarm Prewarm apical and basolateral plates at 37° C. for about 5 min, then begin transport by placing the apical plate onto basolateral plate. 9. Incubation Keep the plates in incubator at 37° C. for 90 min. 10.
Prepare Working Solution in MeOH/H2O (1:1)
• Prepare 1×solution: 3 μL (20×)+57 μL of 0.4% DMSO HBSS+60 μL ACN with IS (Osalmid or Imipramine)−120 μL (1×) 11. Transport termination Separate the apical plate from the basolateral plate after 90-min incubation. 12. Measure LY Take 100 μL samples from basolateral plate to an opaque plate as LYT90. 13. Measure LY concentrations for LYT0 and LYT90 by Fluorometer (at excitation of 485 nm/emission of 535 nm). 14.
Study details: Test concentration 10 μM
Test systems: Caco-2/HBSS solution
Incubation conditions: 0, 90 min at 37° C.
Sample size: Duplicates (n=2)
Bioanalytical method: LC-MS/MS
For Millicell-24 Cell Culture Plates: surface area of the membrane=0.7 cm^2, VA=0.8 mL (A-to-B) or 0.4 mL (B-to-A)
The compound numbers correspond to the compound numbers in Table 1.

T1 sequence (P61073 whole entry): as above

Compound	IC50 [1]	IC50 [2]	Papp A→B at 90 min, 10 μM [3]	Papp B→A at 90 min, 10 μM [3]	efflux ratio at 90 min, 10 μM [3]
Cc1cccnc1C1CCCN1Cc1nccn1Cc1cccnc1 (centres unmarked) [Compound I-88]	≥ 1000 nM	100 to 1000 nM	10 to 30 ×10⁻⁶ cm/s	10 to 30 ×10⁻⁶ cm/s	0.1 to 10
CN1CCN(c2cccc3[nH]c(C4CCCN4Cc4ccccc4-n4cccn4)nc23)CC1 (centres unmarked) [Compound I-5, 2-(1-(2-(1H-pyrazol-1-yl)benzyl)pyrrolidin-2-yl)-7-(4-methylpiperazin-1-yl)-1H-benzo[d]imidazole]	≥ 1000 nM	≥ 1000 nM			
CN1CCN(c2cccc3nc(C4CCCN4Cc4ncccn4)[nH]c23)CC1 (centres unmarked) [Compound I-105]	≥ 1000 nM	≥ 1000 nM	0.1 to 10 ×10⁻⁶ cm/s	> 30 ×10⁻⁶ cm/s	0.1 to 10
c1ccc(N2CCN(c3c(CN4CCCC4c4ccccn4)nc4ccccn34)CC2)cc1 (centres unmarked) [Compound I-96]	≥ 1000 nM	100 to 1000 nM	10 to 30 ×10⁻⁶ cm/s	10 to 30 ×10⁻⁶ cm/s	0.1 to 10
Cc1cccnc1C1CCCN1Cc1cccc(C(=O)Nc2ccncc2)n1 (centres unmarked) [Compound I-90]	≥ 1000 nM	100 to 1000 nM			
CN1CCN(c2cccc3nc(CN4CCCC4c4ncccc4Cl)cn23)CC1 (centres unmarked) [Compound I-27]	100 to 1000 nM	0.01 to 100 nM	0.1 to 10 ×10⁻⁶ cm/s	10 to 30 ×10⁻⁶ cm/s	0.1 to 10
Cc1cccnc1C1CCCN1Cc1nc2ccccn2c1CCC#N (centres unmarked) [Compound I-81]	≥ 1000 nM	100 to 1000 nM			
Cc1cccnc1C1CCCN1Cc1nc2ccccn2c1CN1CCOCC1 (centres unmarked) [Compound I-119]	100 to 1000 nM	0.01 to 100 nM	0.1 to 10 ×10⁻⁶ cm/s	> 30 ×10⁻⁶ cm/s	10 to 30
CN1CCN(c2cccc3nc(C4CCCCN4Cc4ccccc4-n4cccn4)[nH]c23)CC1 (centres unmarked) [Compound I-3, 2-(1-(2-(1H-pyrazol-1-yl)benzyl)piperidin-2-yl)-7-(4-methylpiperazin-1-yl)-1H-benzo[d]imidazole]	≥ 1000 nM	≥ 1000 nM			
Cc1cccnc1C1CCCN1Cc1nc2c(N3CCN(C)CC3)cccc2o1 (centres unmarked) [Compound I-72]	≥ 1000 nM	≥ 1000 nM			
Cc1cccnc1C1CCCN1Cc1cn2c(N3CCN(C4CC4)CC3)cccc2n1 (centres unmarked) [Compound I-32]	100 to 1000 nM	100 to 1000 nM	0.1 to 10 ×10⁻⁶ cm/s	10 to 30 ×10⁻⁶ cm/s	0.1 to 10
CN1CCN(c2c(C3CCCN3Cc3ncccn3)nc3ccccn23)CC1 (centres unmarked) [Compound I-102]	≥ 1000 nM	100 to 1000 nM	0.1 to 10 ×10⁻⁶ cm/s	> 30 ×10⁻⁶ cm/s	> 30
c1ccc(C2CCCN2Cc2ncccc2-n2cccn2)nc1 (centres unmarked) [Compound I-67]	≥ 1000 nM	≥ 1000 nM			
Cc1cccnc1C1CCCN1C(=O)c1cn2c(N3CCN(C)CC3)cccc2n1 (centres unmarked) [Compound I-74]	≥ 1000 nM	≥ 1000 nM			
Cc1cccnc1C1CCCN1Cc1nccn1-c1ccccn1 (centres unmarked) [Compound I-113]	≥ 1000 nM	≥ 1000 nM			
c1ccc(C2CCCN2Cc2nc3ccccn3c2COc2cccnc2)nc1 (centres unmarked) [Compound I-95]	≥ 1000 nM	≥ 1000 nM			
c1ccc(C2CCCN2Cc2nc3ccccn3c2N2CCN(c3ccncc3)CC2)nc1 (centres unmarked) [Compound I-133]	≥ 1000 nM	100 to 1000 nM			
OCc1c(CN2CCCC2c2ccccn2)nc2ccccn12 (centres unmarked) [Compound I-93]	≥ 1000 nM	100 to 1000 nM			
Cc1cccnc1C1CCCN1Cc1cc2c(N3CCN(C)CC3)cccc2o1 (centres unmarked) [Compound I-73]	≥ 1000 nM	100 to 1000 nM			
Cc1cccnc1C1CCCN1Cc1nccn1-c1cccnc1 (centres unmarked) [Compound I-114]	≥ 1000 nM	100 to 1000 nM			
Cc1cccnc1CN1CCCC1c1cn2c(N3CCN(CC(F)(F)F)CC3)cccc2n1 (centres unmarked) [Compound I-129]	≥ 1000 nM	≥ 1000 nM			
Cc1cccnc1C1CCCN1Cc1nccn1-c1ccncc1 (centres unmarked) [Compound I-115]	≥ 1000 nM	100 to 1000 nM			

The remaining lines, values ahead:

IC50 [1]	IC50 [2]	Papp A→B at 90 min, 10 μM [3]	Papp B→A at 90 min, 10 μM [3]	efflux ratio at 90 min, 10 μM [3]	Compound
100 to 1000 nM	0.01 to 100 nM	0.1 to 10 ×10⁻⁶ cm/s	10 to 30 ×10⁻⁶ cm/s	0.1 to 10	Cc1cccnc1CN1CCCC1c1nccn1CC1CCN(C)CC1 (centres unmarked) [Compound I-92]
≥ 1000 nM	0.01 to 100 nM				CN1CCC(n2c(C3CCCN3Cc3ccccn3)nc3ccccc32)CC1 (centres unmarked) [Compound I-78]
0.01 to 100 nM	0.01 to 100 nM	0.1 to 10 ×10⁻⁶ cm/s	> 30 ×10⁻⁶ cm/s	10 to 30	Cc1cccnc1C1CCCN1Cc1nc2ccccn2c1N1CCN(C)CC1 (centres unmarked) [Compound I-40]
≥ 1000 nM	100 to 1000 nM	10 to 30 ×10⁻⁶ cm/s	> 30 ×10⁻⁶ cm/s	0.1 to 10	Cc1cccnc1C1CCCN1Cc1nccn1CC1CCN(CC(F)(F)F)CC1 (centres unmarked) [Compound I-106]
≥ 1000 nM	100 to 1000 nM	0.1 to 10 ×10⁻⁶ cm/s	> 30 ×10⁻⁶ cm/s	0.1 to 10	Cc1cccnc1C1CCCN1Cc1nccn1C1CCN(C)CC1 (centres unmarked) [Compound I-36]
≥ 1000 nM	100 to 1000 nM	10 to 30 ×10⁻⁶ cm/s	10 to 30 ×10⁻⁶ cm/s	0.1 to 10	CN1CCN(c2cccnc2CN2CCCC2c2ccccn2)CC1 (centres unmarked) [Compound I-56]
≥ 1000 nM	0.01 to 100 nM				Cc1cccnc1CN1CCCC1c1nc2ccccc2n1C1CCN(C)CC1 (centres unmarked) [Compound I-77]
≥ 1000 nM	100 to 1000 nM				Cc1cccnc1C1CCCN1Cc1nccn1C(=O)N1CCN(C)CC1 (centres unmarked) [Compound I-125]
≥ 1000 nM	100 to 1000 nM				Cc1cccnc1C1CCCN1Cc1ncccc1-n1cccn1 (centres unmarked) [Compound I-66]
≥ 1000 nM	≥ 1000 nM				Cc1cccnc1C1CCCN1Cc1cccc(CC2CCN(C)CC2)n1 (centres unmarked) [Compound I-116]
≥ 1000 nM	100 to 1000 nM				Cc1cccnc1C1CCCN1Cc1nc2cccc(N3CCN(C)CC3)c2o1 (centres unmarked) [Compound I-71]
0.01 to 100 nM	0.01 to 100 nM				Cc1cccnc1CN1CCCC1c1nc2ccccn2c1N1CCN(C)CC1 (centres unmarked) [Compound I-100]
